# ChEMBL document CHEMBL5046279, “Discovery of a Partial Glucokinase Activator Clinical Candidate: Diethyl ((3-(3-((5-(Azetidine-1-carbonyl)pyrazin-2-yl)oxy)-5-isopropoxybenzamido)-1H-pyrazol-1-yl)methyl)phosphonate (BMS-820132)” (J Med Chem, 2022)
# Columns and labels:
# [1] = Microsomal stability in human liver microsomes assessed as parent compound remaining at 0.5 uM measured after 10 mins in presence of NADPH; assay type: ADME, Microsome; conditions: read-out: Stability
# [2] = target: Voltage-gated inwardly rectifying potassium channel KCNH2 (Homo sapiens, UniProt Q12809); test: Inhibition of hERG by patch clamp method; assay type: toxicity
# [3] = Permeability of compound at pH 7.4 by PAMPA assay; assay type: ADME; conditions: read-out: permeability
# Hexokinase-4 [4] = target: T1, Hexokinase-4 (Homo sapiens, UniProt P35557); test: Activation of recombinant full length human liver glucokinase expressed in Escherichia coli incubated for 10 mins by plate reader analysis
# T1 sequence (P35557 whole entry): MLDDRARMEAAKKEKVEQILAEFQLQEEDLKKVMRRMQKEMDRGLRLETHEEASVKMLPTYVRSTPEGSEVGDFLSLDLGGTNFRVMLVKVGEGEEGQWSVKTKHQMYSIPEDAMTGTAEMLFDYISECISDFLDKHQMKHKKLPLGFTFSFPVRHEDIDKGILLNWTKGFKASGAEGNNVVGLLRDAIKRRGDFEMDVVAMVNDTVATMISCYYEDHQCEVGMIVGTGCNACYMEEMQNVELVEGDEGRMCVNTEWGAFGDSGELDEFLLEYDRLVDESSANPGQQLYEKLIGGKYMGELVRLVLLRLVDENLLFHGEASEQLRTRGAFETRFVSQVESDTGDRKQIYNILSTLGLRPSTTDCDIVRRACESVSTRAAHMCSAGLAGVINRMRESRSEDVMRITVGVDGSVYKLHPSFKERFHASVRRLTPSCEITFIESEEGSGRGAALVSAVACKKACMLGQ
# [5] = Aqueous solubility of the compound at pH 6.5 using amorphous form of sample; assay type: physicochemical; conditions: aqueous solution
# Hexokinase-4 [6] = target: T1, Hexokinase-4; test: Activation of recombinant human full length liver glucokinase expressed in Escherichia coli incubated for 10 mins in presence of 5 mM glucose by plate reader analysis
# Hexokinase-4 [7] = target: T1, Hexokinase-4; test: Activation of recombinant human full length liver glucokinase expressed in Escherichia coli incubated for 10 mins in presence of 2 mM glucose by plate reader analysis
# hERG (KCNH2) = hERG (KCNH2) (Homo sapiens, UniProt Q12809); test: Inhibition of hERG at 10 uM by patch clamp method relative to control; assay type: toxicity
# Hexokinase-4 [8] = target: T1, Hexokinase-4; test: Displacement of fluorescent labeled derivative from recombinant human hepatic glucokinase incubated for 30 mins in presence of 12 mM glucose by fluorescent polarization assay
# Hexokinase-4 [9] = target: T2, Hexokinase-4 (Mus musculus, UniProt P52792); test: Activation of recombinant mouse full length liver glucokinase expressed in Escherichia coli incubated for 10 mins in presence of 12 mM glucose by plate reader analysis
# T2 sequence (P52792 whole entry): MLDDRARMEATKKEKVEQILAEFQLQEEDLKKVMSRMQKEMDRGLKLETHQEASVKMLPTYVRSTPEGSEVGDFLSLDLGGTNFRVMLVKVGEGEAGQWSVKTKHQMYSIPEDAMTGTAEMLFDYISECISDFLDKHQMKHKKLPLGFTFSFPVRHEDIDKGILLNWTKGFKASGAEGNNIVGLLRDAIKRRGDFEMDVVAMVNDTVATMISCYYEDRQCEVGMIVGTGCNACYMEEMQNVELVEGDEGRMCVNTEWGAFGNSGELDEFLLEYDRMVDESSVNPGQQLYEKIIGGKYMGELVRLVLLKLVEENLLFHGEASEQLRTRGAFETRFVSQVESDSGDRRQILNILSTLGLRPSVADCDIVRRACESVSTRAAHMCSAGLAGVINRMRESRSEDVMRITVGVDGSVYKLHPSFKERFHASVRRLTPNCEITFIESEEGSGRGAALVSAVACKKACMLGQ
# Sequence of Voltage-gated inwardly rectifying potassium channel KCNH2 (Q12809 whole entry): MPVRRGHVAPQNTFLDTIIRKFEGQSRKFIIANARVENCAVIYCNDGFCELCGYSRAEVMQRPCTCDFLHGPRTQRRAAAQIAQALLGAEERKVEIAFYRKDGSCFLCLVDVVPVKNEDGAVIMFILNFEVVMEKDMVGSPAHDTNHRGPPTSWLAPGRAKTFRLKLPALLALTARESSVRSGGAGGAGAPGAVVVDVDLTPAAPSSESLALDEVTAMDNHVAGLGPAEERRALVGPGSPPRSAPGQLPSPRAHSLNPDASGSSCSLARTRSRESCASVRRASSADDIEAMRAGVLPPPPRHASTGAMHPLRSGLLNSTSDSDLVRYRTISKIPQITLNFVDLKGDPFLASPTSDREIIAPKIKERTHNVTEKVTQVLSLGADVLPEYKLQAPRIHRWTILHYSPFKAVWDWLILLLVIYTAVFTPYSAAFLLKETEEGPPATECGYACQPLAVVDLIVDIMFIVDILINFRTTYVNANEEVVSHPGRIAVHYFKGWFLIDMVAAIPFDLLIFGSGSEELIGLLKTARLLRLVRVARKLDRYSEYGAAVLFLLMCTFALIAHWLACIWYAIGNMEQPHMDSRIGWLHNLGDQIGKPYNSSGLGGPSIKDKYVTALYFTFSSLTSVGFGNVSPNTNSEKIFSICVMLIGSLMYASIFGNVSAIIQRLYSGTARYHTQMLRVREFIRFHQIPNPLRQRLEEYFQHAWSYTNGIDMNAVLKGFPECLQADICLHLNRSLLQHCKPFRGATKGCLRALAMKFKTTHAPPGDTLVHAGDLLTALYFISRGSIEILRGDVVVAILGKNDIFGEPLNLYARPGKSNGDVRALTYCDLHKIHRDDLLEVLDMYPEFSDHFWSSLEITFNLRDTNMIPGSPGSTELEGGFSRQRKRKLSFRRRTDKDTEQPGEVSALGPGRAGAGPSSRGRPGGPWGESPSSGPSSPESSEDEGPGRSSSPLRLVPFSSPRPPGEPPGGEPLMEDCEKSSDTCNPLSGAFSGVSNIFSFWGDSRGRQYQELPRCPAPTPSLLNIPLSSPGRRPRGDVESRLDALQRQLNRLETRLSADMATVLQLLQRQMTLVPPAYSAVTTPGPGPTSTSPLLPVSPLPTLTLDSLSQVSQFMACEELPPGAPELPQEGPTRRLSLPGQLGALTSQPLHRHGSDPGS
# Sequence of hERG (KCNH2) (Q12809 whole entry): as above
Compound,"remaining at 10 min, 0.5 µM [1]",Papp [3],EC50 (Hexokinase-4 [4]),solubility [5],IC50 [2],EC50 (Hexokinase-4 [6]),EC50 (Hexokinase-4 [7]),inhibition at 10 µM (hERG (KCNH2)),IC50 (Hexokinase-4 [8]),EC50 (Hexokinase-4 [9])
COC[C@H](C)Oc1cc(Oc2ccc(S(C)(=O)=O)cc2)cc(C(=O)Nc2ccn(CP(C)(C)=O)n2)c1,96%,–,679 nM,96 µg/mL,> 80000 nM,–,–,–,–,–
CCOP(=O)(Cn1ccc(NC(=O)c2cc(Oc3ccc(S(C)(=O)=O)cc3)cc(O[C@@H](C)CF)c2)n1)OCC,78%,56 ×10⁻⁶ cm/s,87 nM,1 µg/mL,> 80000 nM,–,–,–,–,–
CCOP(=O)(Cn1ccc(NC(=O)c2cc(Oc3ccc(S(C)(=O)=O)cc3)cc(O[C@@H](C)COC)c2)n1)OCC,11%,–,75 nM,240 µg/mL,> 80000 nM,–,–,–,–,–
CCOP(=O)(Cc1csc(NC(=O)c2cc(Oc3ccc(S(C)(=O)=O)cc3)cc(O[C@@H](C)COC)c2)n1)OCC,4%,–,38 nM,16 µg/mL,50000 nM,64 nM,185 nM,60%,122 nM,42 nM
CCOP(=O)(Cn1ccc(NC(=O)c2cc(Oc3ccc(C(=O)N4CCC4)nn3)cc(OC(C)C)c2)n1)OCC,99%,–,1240 nM,409 µg/mL,> 80000 nM,–,–,–,–,–
CCO[P@](C)(=O)Cn1ccc(NC(=O)c2cc(Oc3ccc(S(C)(=O)=O)cc3)cc(O[C@@H](C)COC)c2)n1,81%,–,169 nM,547 µg/mL,> 80000 nM,–,–,–,–,–

# Continued by falling EC50 (Hexokinase-4 [4]), values first:
"remaining at 10 min, 0.5 µM [1]",Papp [3],EC50 (Hexokinase-4 [4]),solubility [5],Compound,IC50 [2],EC50 (Hexokinase-4 [6]),EC50 (Hexokinase-4 [7]),inhibition at 10 µM (hERG (KCNH2)),IC50 (Hexokinase-4 [8]),EC50 (Hexokinase-4 [9])
46%,51.6 ×10⁻⁶ cm/s,67 nM,2 µg/mL,CCOP(=O)(Cn1ccc(NC(=O)c2cc(Oc3ccc(S(=O)(=O)N4CCC4)cc3)cc(OC(C)C)c2)n1)OCC,33000 nM,–,–,–,–,–
99%,–,61 nM,229 µg/mL,CCOP(=O)(Cn1ccc(NC(=O)c2cc(Oc3cnc(C(=O)N4CCC4)nc3)cc(OC(C)C)c2)n1)OCC,> 80000 nM,–,–,–,–,–
33%,–,49 nM,5 µg/mL,CCOP(=O)(Cn1ncc(NC(=O)c2cc(Oc3ccc(S(C)(=O)=O)cc3)cc(O[C@@H](C)COC)c2)n1)OCC,–,–,–,–,–,–
77%,53.6 ×10⁻⁶ cm/s,32 nM,3 µg/mL,CCOP(=O)(Cn1ccc(NC(=O)c2cc(Oc3ccc(S(=O)(=O)C(C)C)cc3)cc(OC(C)C)c2)n1)OCC,30000 nM,–,–,–,–,–
66%,–,25 nM,39 µg/mL,CCOP(=O)(Cn1ccc(NC(=O)c2cc(Oc3ccc(C(=O)N4CCC4)nc3)cc(OC(C)C)c2)n1)OCC,> 80000 nM,–,–,–,–,–
96%,47.1 ×10⁻⁶ cm/s,24 nM,–,CCOP(=O)(Cn1ccc(NC(=O)c2cc(Oc3ccc(S(C)(=O)=O)nc3)cc(OC(C)C)c2)n1)OCC,> 80000 nM,–,–,–,–,–
